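Results reflect a 48-hour exposure of cells in 96-well plates to compound at five concentrations. GI50 is the concentration that inhibits growth by half.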 The source made the active and inactive calls. No stated cut-off is given here; in the data, active = GI50 up to about 1.1 µM and inactive = higher.
How the values were obtained:
Experiment in all cases: NCI anticancer screen, dose series, 48 h
K562 = tested on: K562
HCT-15 = tested on: HCT-15
DMS-273 = tested on: DMS-273
SK-MEL-28 = tested on: SK-MEL-28
UACC-62 = tested on: UACC-62
IGROV-1 = tested on: IGROV-1
RPMI-8226 = tested on: RPMI-8226
HCC 2998 = tested on: HCC 2998
M14 = tested on: M14
UACC-257 = tested on: UACC-257
LOX IMVI = tested on: LOX IMVI
DMS-114 = tested on: DMS-114
SF-539 = tested on: SF-539
SR = tested on: SR
SF-295 = tested on: SF-295
NCI-H522 = tested on: NCI-H522
MOLT-4 = tested on: MOLT-4
ACHN = tested on: ACHN
HOP-62 = tested on: HOP-62
A549 = tested on: A549
SK-MEL-2 = tested on: SK-MEL-2
LXFL 529 = tested on: LXFL 529
KM-20L2 = tested on: KM-20L2
A498 = tested on: A498
SNB-75 = tested on: SNB-75
UO-31 = tested on: UO-31
HT-29 = tested on: HT-29
DLD-1 = tested on: DLD-1
XF498 = tested on: XF498
OVCAR-5 = tested on: OVCAR-5
COLO 205 = tested on: COLO 205
EKVX = tested on: EKVX
SK-OV-3 = tested on: SK-OV-3
U-251 = tested on: U-251
RXF 631 = tested on: RXF 631
TK-10 = tested on: TK-10
SN12C = tested on: SN12C
HOP-18 = tested on: HOP-18
OVCAR-4 = tested on: OVCAR-4
M19-MEL = tested on: M19-MEL
Malme-3M = tested on: Malme-3M
HOP-92 = tested on: HOP-92
KM12 = tested on: KM12
HCT-116 = tested on: HCT-116
HL-60 = tested on: HL-60
SNB-19 = tested on: SNB-19
CCRF-CEM = tested on: CCRF-CEM
OVCAR-8 = tested on: OVCAR-8
NCI-H460 = tested on: NCI-H460
OVCAR-3 = tested on: OVCAR-3
RXF 393 = tested on: RXF 393
NCI-H23 = tested on: NCI-H23
SK-MEL-5 = tested on: SK-MEL-5
SF-268 = tested on: SF-268
NCI-H226 = tested on: NCI-H226
CAKI-1 = tested on: CAKI-1
786-0 = tested on: 786-0
SNB-78 = tested on: SNB-78
SW-620 = tested on: SW-620

Q: What does the source list for `COC(=O)C(=O)C(C(=O)OC)C(=O)C(=O)Nc1cc(Cl)c(Cl)cc1Cl` (stereo unspecified)?
A: GI50 (K562): > 100 µM (inactive); GI50 (HCT-15): 47.1 µM; GI50 (DMS-273): 44.7 µM (inactive); GI50 (SK-MEL-28): > 100 µM (inactive); GI50 (UACC-62): > 100 µM (inactive); GI50 (IGROV-1): > 100 µM (inactive); GI50 (RPMI-8226): 24.9 µM (inactive); GI50 (HCC 2998): > 100 µM (inactive); GI50 (M14): > 100 µM (inactive); GI50 (UACC-257): > 100 µM (inactive); GI50 (LOX IMVI): 61 µM (inactive); GI50 (DMS-114): 14.6 µM (inactive); GI50 (SF-539): > 100 µM (inactive); GI50 (SR): 24.8 µM (inactive); GI50 (SF-295): > 100 µM (inactive); GI50 (NCI-H522): > 100 µM (inactive); GI50 (MOLT-4): > 100 µM (inactive); GI50 (ACHN): > 100 µM (inactive); GI50 (HOP-62): > 100 µM (inactive); GI50 (A549): > 100 µM (inactive); GI50 (SK-MEL-2): > 100 µM (inactive); GI50 (LXFL 529): > 100 µM (inactive); GI50 (KM-20L2): > 100 µM (inactive); GI50 (A498): > 100 µM (inactive); GI50 (SNB-75): > 100 µM (inactive); GI50 (UO-31): > 100 µM (inactive); GI50 (HT-29): 49.8 µM (inactive); GI50 (DLD-1): 76.4 µM (inactive); GI50 (XF498): > 100 µM (inactive); GI50 (OVCAR-5): > 100 µM (inactive); GI50 (COLO 205): 29.4 µM (inactive); GI50 (EKVX): > 100 µM (inactive); GI50 (SK-OV-3): > 100 µM (inactive); GI50 (U-251): > 100 µM (inactive); GI50 (RXF 631): > 100 µM (inactive); GI50 (TK-10): > 100 µM (inactive); GI50 (SN12C): > 100 µM (inactive); GI50 (HOP-18): > 100 µM (inactive); GI50 (OVCAR-4): > 100 µM (inactive); GI50 (M19-MEL): > 100 µM (inactive); GI50 (Malme-3M): > 100 µM (inactive); GI50 (HOP-92): > 100 µM (inactive); GI50 (KM12): > 100 µM (inactive); GI50 (HCT-116): 22.4 µM (inactive); GI50 (HL-60): > 100 µM (inactive); GI50 (SNB-19): > 100 µM (inactive); GI50 (CCRF-CEM): 31.6 µM (inactive); GI50 (OVCAR-8): > 100 µM (inactive); GI50 (NCI-H460): > 100 µM (inactive); GI50 (OVCAR-3): > 100 µM (inactive); GI50 (RXF 393): > 100 µM (inactive); GI50 (NCI-H23): > 100 µM (inactive); GI50 (SK-MEL-5): > 100 µM (inactive); GI50 (SF-268): > 100 µM (inactive); GI50 (NCI-H226): > 100 µM (inactive); GI50 (CAKI-1): > 100 µM (inactive); GI50 (786-0): > 100 µM (inactive)

Q: Which results are given for `CC#C[C@@]1(O)CCCC[C@@H]1O`?
A: GI50 (K562): > 100 µM (inactive); GI50 (HCT-15): > 100 µM; GI50 (DMS-273): > 100 µM (inactive); GI50 (SK-MEL-28): > 100 µM (inactive); GI50 (UACC-62): > 100 µM (inactive); GI50 (IGROV-1): > 100 µM (inactive); GI50 (RPMI-8226): > 100 µM (inactive); GI50 (HCC 2998): > 100 µM (inactive); GI50 (M14): > 100 µM (inactive); GI50 (UACC-257): > 100 µM (inactive); GI50 (LOX IMVI): > 100 µM (inactive); GI50 (DMS-114): > 100 µM (inactive); GI50 (SF-539): > 100 µM (inactive); GI50 (SF-295): > 100 µM (inactive); GI50 (NCI-H522): > 100 µM (inactive); GI50 (MOLT-4): > 100 µM (inactive); GI50 (ACHN): > 100 µM (inactive); GI50 (HOP-62): > 100 µM (inactive); GI50 (A549): > 100 µM (inactive); GI50 (SK-MEL-2): > 100 µM (inactive); GI50 (KM-20L2): > 100 µM (inactive); GI50 (SNB-78): > 100 µM (inactive); GI50 (A498): > 100 µM (inactive); GI50 (SNB-75): > 100 µM (inactive); GI50 (UO-31): > 100 µM (inactive); GI50 (HT-29): > 100 µM (inactive); GI50 (XF498): > 100 µM (inactive); GI50 (COLO 205): > 100 µM (inactive); GI50 (EKVX): > 100 µM (inactive); GI50 (SK-OV-3): > 100 µM (inactive); GI50 (U-251): > 100 µM (inactive); GI50 (SW-620): > 100 µM (inactive); GI50 (RXF 631): > 100 µM (inactive); GI50 (TK-10): > 100 µM (inactive); GI50 (SN12C): > 100 µM (inactive); GI50 (HOP-18): > 100 µM (inactive); GI50 (OVCAR-4): > 100 µM (inactive); GI50 (M19-MEL): > 100 µM (inactive); GI50 (Malme-3M): > 100 µM (inactive); GI50 (HOP-92): > 100 µM (inactive); GI50 (KM12): > 100 µM (inactive); GI50 (HCT-116): > 100 µM (inactive); GI50 (HL-60): > 100 µM (inactive); GI50 (SNB-19): > 100 µM (inactive); GI50 (CCRF-CEM): > 100 µM (inactive); GI50 (OVCAR-8): > 100 µM (inactive); GI50 (NCI-H460): > 100 µM (inactive); GI50 (OVCAR-3): > 100 µM (inactive); GI50 (RXF 393): > 100 µM (inactive); GI50 (NCI-H23): > 100 µM (inactive); GI50 (SK-MEL-5): > 100 µM (inactive); GI50 (SF-268): > 100 µM (inactive); GI50 (NCI-H226): > 100 µM (inactive); GI50 (786-0): > 100 µM (inactive)
